{
  "source": "patent US20260014235A1",
  "about": "“METHODS OF PROMOTING REMYELINATION” (Mallinckrodt Pharmaceuticals Ireland Limited, priority 2019, published 2026)",
  "test_system": "mouse model of cuprizone demylelination",
  "test": "Remyelination in gray matter (hippocampus) via quantification of PLP, cuprizone/rapamycin mouse model",
  "type": "in vivo, C57BL/6 mice",
  "conditions": "6 weeks treatment after 12 weeks cuprizone co-administered with rapamycin, RCI 10 U/kg",
  "protocol": "The hypothesis that repository corticotropin injection (RCI) accelerates remyelination in a mouse model of cuprizone demylelination was tested. C57BL/6 mice were fed 0.3% cuprizone co-administered with rapamycin for 12 weeks to induce demyelination and inhibit spontaneous remyelination. […] Mice were treated for another 6 weeks with RCI, triiodothyronine (T3, positive control), or vehicle (negative control). Remyelination was assayed in gray matter (hippocampus) via quantification of myelin proteolipid protein (PLP) and in white matter (corpus callosum) via p-Phenylenediamine (PPD) staining. […] Of note-increased remyelination was not observed at higher doses of RCI in this rodent model (data not shown).",
  "note": "Marks after values point to notes of the source that are not given here.",
  "data": [
    {"compound": "N[C@@H](Cc1cc(I)c(Oc2ccc(O)c(I)c2)c(I)c1)C(=O)O", "note": "[Positive Control, triiodothyronine]", "values": [
      {"measurement": "Mean PLP (% Area Covered)", "value": "40.8** % Area Covered"}
    ]}
  ]
}
